Reference: US20260234161A1, “RIFABUTIN ANALOGS FOR THE TREATMENT OF BACTERIAL DISEASES” (BIOVERSYS AG, priority 2023, published 2026)
≈ marks a conversion by molar mass, not a printed value. Like-named read-outs stand apart in the source and are kept apart here.

Assays:
Assay type in all cases: cell-based
[1] = tested on: S. aureus (UAMS-1625 strain); experiment: MIC by broth microdilution, S. aureus; details: Staphylococcus aureus, 20 h, read-out: MIC S. aureus
Description: (§1) MIC values were determined by broth microdilution method according to the CLSI guidelines with the following exceptions: MIC against A. baumannii was performed in RPMI medium supplemented with 10% FCS and MIC against M. abscessus was performed in Middlebrook 7H9 broth supplemented with Middlebrook ADC growth supplement (10%; see column “M. abscessus 7H9”). MIC forM abscessus was determined a second time in standard cation adjusted Mueller Hinton broth without growth supplement (see colum “M. abscessus MH”). All other MIC were performed in standard cation adjusted Mueller Hinton broth, supplemented with Middlebrook ADC growth supplement (5%) for the slow growing mycobacteria (M. xenopi, M. kansasii and M. avium).
(§2) The following procedure applies to all species tested, except forM xenopi. From a fresh culture plate (from overnight to several days depending on the bacteria), cells were resuspended in 0.9% (w/v) saline solution and bacterial inoculum was prepared in the respective testing medium with 5×10^5 CFU/mL. For M. xenopi, the inoculum was prepared from a fresh liquid culture (7H9+ADC). The appropriate volumes of a 10 mg/mL compound solution were directly dispensed in the 96-well assay plate using a digital dispenser to create two-fold dilution series from 32 to 0.002 μg/mL final concentration for A. baumannii and S. aureus; from 16 to 0.016 μg/mL for M. abscessus and M. avium; and from 1 to 6×10^−5 μg/mL for M. kansasii and M. xenopi. 100 μL of bacterial suspension was finally added to the compounds. Plates were covered and incubated without shaking at 35° C. for 20 hours for A. baumanii and S. aureus; at 30° C. for 4 days for M. abscessus; and at 37° C. for 7 days (at least) for M. kansasii (covered with aluminum foil to avoid light exposure), M. avium and M. xenopi. Every experiment contained an antibiotic as quality control. MIC was determined visually as the lowest concentration of a compound that prevents visible growth of the bacteria.
(§3) The in vitro activity of compounds described herein was determined against S. aureus (UAMS-1625 strain), A. baumannii (HUMC1 strain), M. abscessus (ATCC 19977), M. kansasii (ATCC 12478), M. avium (ATCC 25291), and M. xenopi (ATCC 19250).

[2] = tested on: M. abscessus (ATCC 19977); experiment: MIC by broth microdilution, M. abscessus in cation adjusted Mueller Hinton broth; details: Mycobacteroides abscessus, ATCC19977, 96 h, read-out: MIC M. abscessus MH
Description: as §1, §2, §3

[3] = tested on: A. baumannii (HUMC1 strain); experiment: MIC by broth microdilution, A. baumannii (RPMI + 10% FCS); details: Acinetobacter baumannii, read-out: MIC A. baumannii
Description: as §1, §2, §3

[4] = ATCC 19977, cation adjusted Mueller Hinton broth without growth supplement, 30° C., 4 days
[5] = HUMC1 strain, RPMI medium + 10% FCS, 35° C., 20 hours

Compound | MIC [1] | MIC [2, 4] | MIC [3, 5] | MIC [2] | MIC ([3]; 20 h)
CO[C@H]1/C=C/O[C@@]2(C)Oc3c(C)c(O)c4c(c3C2=O)C2=NC3(CCN(CC(C)C)CC3)NC2=C(NC(=O)/C(C)=C\C=C\[C@H](C)[C@H](O)[C@@H](C)[C@@H](O)[C@@H](C)[C@H](OC(=O)N2CCCN(CC3CCCCC3)CC2)[C@@H]1C)C4=O [Compound 41] | 1 µg/mL (≈ 0.973 µM) | 0.125 µg/mL (≈ 0.122 µM) | 60 ng/mL | – | –
CO[C@H]1/C=C/O[C@@]2(C)Oc3c(C)c(O)c4c(c3C2=O)C2=NC3(CCN(CC(C)C)CC3)NC2=C(NC(=O)/C(C)=C\C=C\[C@H](C)[C@H](O)[C@@H](C)[C@@H](O)[C@@H](C)[C@H](OC(=O)N2CCC3(CCN(CC5CCCCC5)C3)C2)[C@@H]1C)C4=O (stereo partly drawn) [Compound 36] | 0.25 µg/mL (≈ 0.237 µM) | 0.125 µg/mL (≈ 0.119 µM) | 60 ng/mL | – | –
CO[C@H]1/C=C/O[C@@]2(C)Oc3c(C)c(O)c4c(c3C2=O)C2=NC3(CCN(CC(C)C)CC3)NC2=C(NC(=O)/C(C)=C\C=C\[C@H](C)[C@H](O)[C@@H](C)[C@@H](O)[C@@H](C)[C@H](OC(=O)N2CCC3(CCN(CCC(C)C)CC3)CC2)[C@@H]1C)C4=O [Compound 71] | 0.25 µg/mL (≈ 0.237 µM) | 0.25 µg/mL (≈ 0.237 µM) | 8 ng/mL | – | –
CCN1CCC2(CC1)CCN(C(=O)O[C@H]1[C@H](C)[C@H](O)[C@H](C)[C@@H](O)[C@@H](C)/C=C/C=C(/C)C(=O)NC3=C4NC5(CCN(CC(C)C)CC5)N=C4c4c(c(O)c(C)c5c4C(=O)[C@@](C)(O/C=C/[C@H](OC)[C@H]1C)O5)C3=O)CC2 [Compound 68] | 0.06 µg/mL (≈ 0.0592 µM) | 1 µg/mL (≈ 0.987 µM) | 3 ng/mL | – | –
CO[C@H]1/C=C/O[C@@]2(C)Oc3c(C)c(O)c4c(c3C2=O)C2=NC3(CCN(CC(C)C)CC3)NC2=C(NC(=O)/C(C)=C\C=C\[C@H](C)[C@H](O)[C@@H](C)[C@@H](O)[C@@H](C)[C@H](OC(=O)N2CCN(Cc3nccn3C)CC2)[C@@H]1C)C4=O [Compound 37] | 0.03 µg/mL (≈ 0.0297 µM) | 2 µg/mL (≈ 1.98 µM) | ≤ 16 ng/mL | – | –
CO[C@H]1/C=C/O[C@@]2(C)Oc3c(C)c(O)c4c(c3C2=O)C2=NC3(CCN(CC(C)C)CC3)NC2=C(NC(=O)/C(C)=C\C=C\[C@H](C)[C@H](O)[C@@H](C)[C@@H](O)[C@@H](C)[C@H](OC(=O)N2CCN(CCc3ccccc3)CC2)[C@@H]1C)C4=O [Compound 46] | 0.25 µg/mL (≈ 0.245 µM) | 0.5 µg/mL (≈ 0.49 µM) | 250 ng/mL | – | –
CO[C@H]1/C=C/O[C@@]2(C)Oc3c(C)c(O)c4c(c3C2=O)C2=NC3(CCN(CC(C)C)CC3)NC2=C(NC(=O)/C(C)=C\C=C\[C@H](C)[C@H](O)[C@@H](C)[C@@H](O)[C@@H](C)[C@H](OC(=O)N2CCC3(CCN(CC(C)C)CC3)CC2)[C@@H]1C)C4=O [Compound 70] | 0.125 µg/mL (≈ 0.12 µM) | 0.25 µg/mL (≈ 0.24 µM) | 4 ng/mL | – | –
CO[C@H]1/C=C/O[C@@]2(C)Oc3c(C)c(O)c4c(c3C2=O)C2=NC3(CCN(CC(C)C)CC3)NC2=C(NC(=O)/C(C)=C\C=C\[C@H](C)[C@H](O)[C@@H](C)[C@@H](O)[C@@H](C)[C@H](OC(=O)NC2CCN(CC3CCCCC3)CC2)[C@@H]1C)C4=O [Compound 29] | 0.125 µg/mL (≈ 0.122 µM) | 0.25 µg/mL (≈ 0.243 µM) | ≤ 16 ng/mL | – | –
CO[C@H]1/C=C/O[C@@]2(C)Oc3c(C)c(O)c4c(c3C2=O)C2=NC3(CCN(CC(C)C)CC3)NC2=C(NC(=O)/C(C)=C\C=C\[C@H](C)[C@H](O)[C@@H](C)[C@@H](O)[C@@H](C)[C@H](OC(=O)N2CCN3CCCC3C2)[C@@H]1C)C4=O (stereo partly drawn) [Compound 25] | 0.03 µg/mL (≈ 0.0313 µM) | 2 µg/mL (≈ 2.09 µM) | ≤ 16 ng/mL | – | –
CO[C@H]1/C=C/O[C@@]2(C)Oc3c(C)c(O)c4c(c3C2=O)C2=NC3(CCN(CC(C)C)CC3)NC2=C(NC(=O)/C(C)=C\C=C\[C@H](C)[C@H](O)[C@@H](C)[C@@H](O)[C@@H](C)[C@H](OC(=O)N2CCNCC2)[C@@H]1C)C4=O [Compound 51] | 0.016 µg/mL (≈ 0.0174 µM) | 4 µg/mL (≈ 4.36 µM) | ≤ 1 ng/mL | – | –
CO[C@H]1/C=C/O[C@@]2(C)Oc3c(C)c(O)c4c(c3C2=O)C2=NC3(CCN(CC(C)C)CC3)NC2=C(NC(=O)/C(C)=C\C=C\[C@H](C)[C@H](O)[C@@H](C)[C@@H](O)[C@@H](C)[C@H](OC(=O)N2CCN(CC3CCOCC3)CC2)[C@@H]1C)C4=O [Compound 53] | 0.125 µg/mL (≈ 0.123 µM) | 0.125 µg/mL (≈ 0.123 µM) | 4 ng/mL | – | –
CO[C@H]1/C=C/O[C@@]2(C)Oc3c(C)c(O)c4c(c3C2=O)C2=NC3(CCN(CC(C)C)CC3)NC2=C(NC(=O)/C(C)=C\C=C\[C@H](C)[C@H](O)[C@@H](C)[C@@H](O)[C@@H](C)[C@H](OC(=O)N2CCC(n3ccnc3)CC2)[C@@H]1C)C4=O [Compound 61] | 0.03 µg/mL (≈ 0.0305 µM) | 4 µg/mL (≈ 4.07 µM) | ≤ 16 ng/mL | – | –
CO[C@H]1/C=C/O[C@@]2(C)Oc3c(C)c(O)c4c(c3C2=O)C2=NC3(CCN(CC(C)C)CC3)NC2=C(NC(=O)/C(C)=C\C=C\[C@H](C)[C@H](O)[C@@H](C)[C@@H](O)[C@@H](C)[C@H](OC(=O)N2CCC3(CC2)CCN(C(C)C)CC3)[C@@H]1C)C4=O [Compound 69] | 0.125 µg/mL (≈ 0.122 µM) | 1 µg/mL (≈ 0.973 µM) | 2 ng/mL | – | –
CO[C@H]1/C=C/O[C@@]2(C)Oc3c(C)c(O)c4c(c3C2=O)C2=NC3(CCN(CC(C)C)CC3)NC2=C(NC(=O)/C(C)=C\C=C\[C@H](C)[C@H](O)[C@@H](C)[C@@H](O)[C@@H](C)[C@H](OC(=O)N2CCCC3(CCN(C)CC3)C2)[C@@H]1C)C4=O [Compound 20] | 0.06 µg/mL (≈ 0.06 µM) | 1 µg/mL (≈ 1 µM) | ≤ 16 ng/mL | – | –
CO[C@H]1/C=C/O[C@@]2(C)Oc3c(C)c(O)c4c(c3C2=O)C2=NC3(CCN(CC(C)C)CC3)NC2=C(NC(=O)/C(C)=C\C=C\[C@H](C)[C@H](O)[C@@H](C)[C@@H](O)[C@@H](C)[C@H](OC(=O)N2CCCN(C3CCCC3)CC2)[C@@H]1C)C4=O [Compound 60] | 0.06 µg/mL (≈ 0.06 µM) | 0.25 µg/mL (≈ 0.25 µM) | ≤ 16 ng/mL | – | –
CO[C@H]1/C=C/O[C@@]2(C)Oc3c(C)c(O)c4c(c3C2=O)C2=NC3(CCN(CC(C)C)CC3)NC2=C(NC(=O)/C(C)=C\C=C\[C@H](C)[C@H](O)[C@@H](C)[C@@H](O)[C@@H](C)[C@H](OC(=O)NC2CCN(C)CC2)[C@@H]1C)C4=O [Compound 73] | 0.03 µg/mL (≈ 0.0317 µM) | – | – | 1 µg/mL (≈ 1.06 µM) | 1 ng/mL
CO[C@H]1/C=C/O[C@@]2(C)Oc3c(C)c(O)c4c(c3C2=O)C2=NC3(CCN(CC(C)C)CC3)NC2=C(NC(=O)/C(C)=C\C=C\[C@H](C)[C@H](O)[C@@H](C)[C@@H](O)[C@@H](C)[C@H](OC(=O)N2CC3CC2CN3Cc2ccccc2)[C@@H]1C)C4=O [Compound 32] | 0.25 µg/mL (≈ 0.245 µM) | 0.5 µg/mL (≈ 0.491 µM) | 30 ng/mL | – | –
CO[C@H]1/C=C/O[C@@]2(C)Oc3c(C)c(O)c4c(c3C2=O)C2=NC3(CCN(CC(C)C)CC3)NC2=C(NC(=O)/C(C)=C\C=C\[C@H](C)[C@H](O)[C@@H](C)[C@@H](O)[C@@H](C)[C@H](OC(=O)N2CCCC3(CN(CC5CCCCC5)C3)C2)[C@@H]1C)C4=O [Compound 65] | 0.5 µg/mL (≈ 0.475 µM) | 0.125 µg/mL (≈ 0.119 µM) | 4 ng/mL | – | –
CCCN1CCC(NC(=O)O[C@H]2[C@H](C)[C@H](O)[C@H](C)[C@@H](O)[C@@H](C)/C=C/C=C(/C)C(=O)NC3=C4NC5(CCN(CC(C)C)CC5)N=C4c4c(c(O)c(C)c5c4C(=O)[C@@](C)(O/C=C/[C@H](OC)[C@H]2C)O5)C3=O)CC1 [Compound 75] | 0.06 µg/mL (≈ 0.0617 µM) | 1 µg/mL (≈ 1.03 µM) | 1 ng/mL | – | –
CO[C@H]1/C=C/O[C@@]2(C)Oc3c(C)c(O)c4c(c3C2=O)C2=NC3(CCN(CC(C)C)CC3)NC2=C(NC(=O)/C(C)=C\C=C\[C@H](C)[C@H](O)[C@@H](C)[C@@H](O)[C@@H](C)[C@H](OC(=O)N(C)C2CC2)[C@@H]1C)C4=O [Compound 82] | 0.06 µg/mL (≈ 0.0665 µM) | 4 µg/mL (≈ 4.43 µM) | 8 ng/mL | – | –
